≈ marks a conversion by molar mass, not a printed value. Where two headings read alike, the source gives them in different places.
Tests used:
Assay type in all cases: cell-based
Proteus vulgaris OXK US = assay: MIC against bacteria (Table I), strain (1)
Description: (§1) Now, for illustrating the excellent pharmacological effects of the compounds of this invention, the values of MIC (γ/ml.) of the compounds against various bacteria are shown in Table 1, in which the compounds of this invention used are shown by example numbers.
(1) Proteus vulgaris OXK US

Shigella sonnei II 37148 = assay: MIC against bacteria (Table I), strain (12); settings: II37148; (12) Shigella sonnei II 37148; read-out: MIC
Description: as §1

Salmonella enteritidis = assay: MIC against bacteria (Table I), strain (10); settings: Salmonella enterica
Description: as §1
(10) Salmonella enteritidis

[1] = system: Bacillus subtilis ATCC 6633; assay: MIC against bacteria (Table I), strain (14); settings: ATCC6633
Description: as §1
(14) Bacillus subtilis ATCC 6633

[2] = system: Shigella flexneri 2a 1675; assay: MIC against bacteria (Table I), strain (11); settings: 2A1675; (11) Shigella flexneri 2a 1675; read-out: MIC
Description: as §1

Proteus vulgaris 0X 19US = assay: MIC against bacteria (Table I), strain (2); settings: 0X19US
Description: as §1
(2) Proteus vulgaris 0X 19US

[3] = system: Staphylococcus Shimanishi; assay: MIC against bacteria (Table I), strain (17)
Description: as §1
(17) Staphylococcus Shimanishi

[4] = system: Pseudomonas aeruginosa ATCC 8689; assay: MIC against bacteria (Table I), strain (4); settings: ATCC8689; (4) Pseudomonas aeruginosa ATCC 8689; read-out: MIC
Description: as §1
(4) Pseudomonas aeruginosa ATCC 8689

Salmonella typhi H901 W = assay: MIC against bacteria (Table I), strain (9); settings: Salmonella enterica, TYPHI
Description: as §1
(9) Salmonella typhi H901 W

[5] = system: Micrococcus flavus ATCC 10240; assay: MIC against bacteria (Table I), strain (15); settings: ATCC10240
Description: as §1
(15) Micrococcus flavus ATCC 10240

[6] = system: Staphylococcus aureus 209P; assay: MIC against bacteria (Table I), strain (16)
Description: as §1
(16) Staphylococcus aureus 209P

Staphylococcus Onuma = assay: MIC against bacteria (Table I), strain (18)
Description: as §1
(18) Staphylococcus Onuma

[7] = system: Bacillus megatherium 10778; assay: MIC against bacteria (Table I), strain (13)
Description: as §1

[8] = system: Escherichia coli kauffmann 0-1; assay: MIC against bacteria (Table I), strain (7)
Description: as §1
(7) Escherichia coli kauffmann 0-1

[9] = system: Klebsiella pneumoniae ATCC 10031; assay: MIC against bacteria (Table I), strain (8); settings: ATCC10031
Description: as §1
(8) Klebsiella pneumoniae ATCC 10031

[10] = system: Proteus mirabilis IXM OM-19; assay: MIC against bacteria (Table I), strain (3); settings: IXMOM19; (3) Proteus mirabilis IXM OM-19; read-out: MIC
Description: as §1
(3) Proteus mirabilis IXM OM-19

[11] = system: Psuedomonas ovalis IMA 1002; assay: MIC against bacteria (Table I), strain (6)
Description: as §1
(6) Psuedomonas ovalis IMA 1002

[12] = system: Pseudomonas aeruginosa 99 (Gentamycin resistant); assay: MIC against bacteria (Table I), strain (5)
Description: as §1
(5) Pseudomonas aeruginosa 99 (Gentamycin resistant)

[13] = (8) Klebsiella pneumoniae ATCC 10031, read-out: MIC
[14] = (1) Proteus vulgaris OXK US, read-out: MIC
[15] = (10) Salmonella enteritidis, read-out: MIC
[16] = (14) Bacillus subtilis ATCC 6633, read-out: MIC
[17] = (2) Proteus vulgaris 0X 19US, read-out: MIC
[18] = (17) Staphylococcus Shimanishi, read-out: MIC
[19] = (15) Micrococcus flavus ATCC 10240, read-out: MIC
[20] = (16) Staphylococcus aureus 209P, read-out: MIC
[21] = (13) Bacillus megatherium 10778, read-out: MIC
[22] = (6) Psuedomonas ovalis IMA 1002, read-out: MIC

SMILES | MIC (Shigella sonnei II 37148) | MIC [2] | MIC ([3]; Staphylococcus) | MIC [4] | MIC (Salmonella typhi H901 W) | MIC ([6]; Staphylococcus aureus, 209P) | MIC (Staphylococcus Onuma; Staphylococcus) | MIC ([8]; Escherichia coli) | MIC [9, 13] | MIC (Proteus vulgaris OXK US; [14]) | MIC (Salmonella enteritidis; [15]) | MIC [1, 16] | MIC [10] | MIC (Proteus vulgaris 0X 19US; [17]) | MIC [3, 18] | MIC [5, 19] | MIC [6, 20] | MIC [7, 21] | MIC [11, 22] | MIC ([12]; Pseudomonas aeruginosa) | other results
CC1=C(C(=O)O)N2C(=O)[C@@H](NC(=O)[C@H](N)c3ccccc3)[C@H]2SC1 [Cephalexin, reference compound] | 6.25 µg/mL (≈ 18 µM) | 6.25 µg/mL (≈ 18 µM) | 6.25 µg/mL (≈ 18 µM) | > 100 µg/mL | 6.25 µg/mL (≈ 18 µM) | 1.56 µg/mL (≈ 4.49 µM) | 12.5 µg/mL (≈ 36 µM) | 10 µg/mL (≈ 28.8 µM) | 3 µg/mL (≈ 8.64 µM) |  |  |  |  |  |  |  |  |  |  |  | MIC (Proteus vulgaris OXK US; Proteus vulgaris): 30 µg/mL (≈ 86.4 µM); MIC (Salmonella enteritidis; ENTERITIDIS): 6.25 µg/mL (≈ 18 µM); MIC ([1]; Bacillus subtilis): 0.78 µg/mL (≈ 2.25 µM); MIC (Proteus vulgaris 0X 19US; Proteus vulgaris): 30 µg/mL (≈ 86.4 µM); MIC ([5]; Micrococcus flavus): 1.56 µg/mL (≈ 4.49 µM); MIC ([7]; Bacillus, 10778): 0.78 µg/mL (≈ 2.25 µM)
CC(=O)OCC1=C(C(=O)O)N2C(=O)[C@@H](NC(=O)[C@H](N)c3ccccc3)[C@H]2SC1 [Cephaloglycin, reference compound] | 10 µg/mL (≈ 24.7 µM) | 3 µg/mL (≈ 7.4 µM) |  | > 100 µg/mL | 3 µg/mL (≈ 7.4 µM) |  |  | 100 µg/mL (≈ 247 µM) | 25 µg/mL (≈ 61.7 µM) | 25 µg/mL (≈ 61.7 µM) | 3 µg/mL (≈ 7.4 µM) | 0.3 µg/mL (≈ 0.74 µM) | 100 µg/mL (≈ 247 µM) | 100 µg/mL (≈ 247 µM) | 3 µg/mL (≈ 7.4 µM) | 0.3 µg/mL (≈ 0.74 µM) | 1 µg/mL (≈ 2.47 µM) | 1 µg/mL (≈ 2.47 µM) | > 100 µg/mL | > 100 µg/mL | MIC (Staphylococcus Onuma; (18) Staphylococcus Onuma, read-out: MIC): 3 µg/mL (≈ 7.4 µM)
O=C(O)CCC(=O)Nc1nnc(SCC2=C(C(=O)O)N3C(=O)[C@@H](NC(=O)[C@H](NC(=O)c4csccc4=O)c4ccccc4)[C@H]3SC2)s1 [Example 1, 7-[D-α-(4-oxo-4H-thiopyran-3-ylcarboxamido)-α-phenylacetamido]-3-[5-(3-carboxypropionylamino)-1,3,4-thiadiazol-2-yl]thiomethyl-Δ^3-cephem-4-carboxylic acid] | 25 µg/mL (≈ 34.9 µM) | 6.25 µg/mL (≈ 8.72 µM) |  | 25 µg/mL (≈ 34.9 µM) | 1.56 µg/mL (≈ 2.18 µM) |  | 6.25 µg/mL (≈ 8.72 µM) |  |  | 0.19 µg/mL (≈ 0.265 µM) | 0.78 µg/mL (≈ 1.09 µM) | 0.39 µg/mL (≈ 0.544 µM) | 0.78 µg/mL (≈ 1.09 µM) | 0.19 µg/mL (≈ 0.265 µM) | 3.13 µg/mL (≈ 4.37 µM) | 3.13 µg/mL (≈ 4.37 µM) | 0.78 µg/mL (≈ 1.09 µM) | 0.78 µg/mL (≈ 1.09 µM) | 25 µg/mL (≈ 34.9 µM) |  | MIC ([8]; (7) Escherichia coli kauffmann 0-1, read-out: MIC): 25 µg/mL (≈ 34.9 µM); MIC ([12]; (5) Pseudomonas aeruginosa 99 (Gentamycin resistant), read-out: MIC): 50 µg/mL (≈ 69.8 µM); MIC ([9]; Klebsiella pneumoniae): 6.25 µg/mL (≈ 8.72 µM)
O=C(O)CCSc1nnc(SCC2=C(C(=O)O)N3C(=O)[C@@H](NC(=O)[C@H](NC(=O)c4cnccc4O)c4ccccc4)[C@H]3SC2)s1 [Example 5, 7-[D-α-(4-hydroxynicotinoylamido)-α-phenylacetamido]-3-(5-carboxyethylthio-1,3,4-thiadiazol-2-yl)-thiomethyl-Δ^3-cephem-4-carboxylic acid] | 6.25 µg/mL (≈ 9.07 µM) | 1.56 µg/mL (≈ 2.26 µM) | 6.25 µg/mL (≈ 9.07 µM) | 12.5 µg/mL (≈ 18.1 µM) | 1.56 µg/mL (≈ 2.26 µM) | 1.56 µg/mL (≈ 2.26 µM) | 6.25 µg/mL (≈ 9.07 µM) | 6.25 µg/mL (≈ 9.07 µM) |  | < 0.09 µg/mL | 0.39 µg/mL (≈ 0.566 µM) | 0.39 µg/mL (≈ 0.566 µM) | 0.78 µg/mL (≈ 1.13 µM) | 0.19 µg/mL (≈ 0.276 µM) |  | 3.13 µg/mL (≈ 4.54 µM) |  | 0.78 µg/mL (≈ 1.13 µM) |  | 6.25 µg/mL (≈ 9.07 µM) | MIC [11]: 6.25 µg/mL (≈ 9.07 µM); MIC ([9]; Klebsiella pneumoniae): 6.25 µg/mL (≈ 9.07 µM)

Reference: US4068074A, “Cephalosporin derivatives having at the 3-position of the cephem ring a heterocyclic thiomethyl group with a carboxy or sulfo group and at the 7-position of the cephem ring an α-heterocylic acylaminophenyl-acetamide group” (priority 1974, dated 1978)
